Tested on: Type-1 diabetic rats
Assay: Chronic administration, plasma glucose level in Type-1 diabetic rats
Assay type: in vivo
Conditions: for PGL: INS 1 U/kg i.p. once daily; for % PGL Reduction: INS 1 U/kg i.p., vs respective vehicle control group
Method: Experimental studies were performed in animal models (rats) to determine anti-diabetic potential if any (Type 1 and Type 2) of the novel fraction isolated from fenugreek seeds (>70% furostanolic saponins with approximately 30% protodioscin as one of the major fractions).

Insulin
PGL (0 d): 527.98 ± 50.31 mg/dL | PGL (7 d): 218.33 ± 16.87 mg/dL | PGL (14 d): 260.65 ± 22.96 mg/dL | % PGL Reduction (7 d): (56.3%) | % PGL Reduction (14 d): (48.2%) | % PGL Reduction (14 d, listed as insulin): 48.2%

Reference: patent US20120071427A1, “NOVEL ANTIDIABETIC FUROSTANOLIC SAPONIN RICH (FSR) FRACTION FROM FENUGREEK SEEDS” (priority 2009, published 2012)
